Measurements: patent US3953456A, “Carbostyril derivatives and process for preparing the same” (Otsuka Pharmaceutical Co., Ltd., priority 1972, dated 1976)
Where two headings read alike, the source gives them in different places.

Experiments:
[1] = system: isoprenaline; experiment: Antagonistic activity against isoprenaline (β-blockers screening method) in anesthesized dogs: % inhibition of pulse increase and blood pressure reduction; format: in vivo, male mongrel adult dogs; details: isoprenaline 0.3 γ/Kg after 5 minutes; for Antagonistic Activity Against Isoprenaline (% Inhibition), Blood Pressure: pressure reduction by isoprenaline alone = 100%; for Antagonistic Activity Against Isoprenaline (% Inhibition), Pulse: pulse increase by isoprenaline alone = 100%
Method: The antagonistic activity of the compounds of this invention against isoprenaline was determined using the β-blockers screening method (C. E. Powell, I. H. Slater : J. Pharmac., 122, 480 (1958 )).
Male mongrel adult dogs, weighing 13 to 20 Kg were anesthesized with 30 mg/Kg of body weight of pentabarbital sodium administered intravenously. Each of the test compounds was then administered to the anesthesized dog at a dosage level of 30γ or 100γ/Kg of body weight from the femoral vein and after 5 minutes isoprenaline was administered to the dog through the femoral vein at a dosage level of 0.3 γ/Kg of body weight. the blood pressure and the pulse (H.R.) were then recorded on a polygraph through a pressure transducer and a tachometer operated by the R wave of the electrocardiograph, respectively, to determine % inhibitory activity of the test compound against the pulse increase and the pressure reduction induced by isoprenaline.
*The pulse increase and the pressure reduction induced by the
administration of isoprenaline alone are referred to as 100%.

[2] = Acute toxicity in rat (LD50, 50% lethal dose); details: in vivo, rat (Wister strain)
Method: Also, the acute toxicity in rat (Wister strain) was determined in a standard manner with respect to representative compounds of this invention.

CC(C)NCC(O)COc1cccc2[nH]c(=O)ccc12 (centres unmarked) [5-(2-hydroxy-3-isopropylamino)propoxycarbostyril]
Antagonistic Activity Against Isoprenaline (% Inhibition), Blood Pressure ([1]; 30 γ/Kg from the femoral vein): 89.2% | Antagonistic Activity Against Isoprenaline (% Inhibition), Pulse ([1]; 30 γ/Kg from the femoral vein): 87.6% | LD50 ([2]; iv, i.v., read-out: LD50 i.v.): 162 mg/kg | LD50 ([2]; po, p.o., read-out: LD50 p.o.): 2000 mg/kg

CC(C)(C)NCC(O)COc1cccc2[nH]c(=O)ccc12 (centres unmarked) [5-(2-hydroxy-3-tert-butylamino)propoxycarbostyril]
Antagonistic Activity Against Isoprenaline (% Inhibition), Blood Pressure ([1]; 30 γ/Kg from the femoral vein): 97.9% | Antagonistic Activity Against Isoprenaline (% Inhibition), Pulse ([1]; 30 γ/Kg from the femoral vein): 96.1% | LD50 ([2]; iv, i.v., read-out: LD50 i.v.): 136 mg/kg | LD50 ([2]; po, p.o., read-out: LD50 p.o.): 1800 mg/kg

CC(C)NCC(O)COc1cccc2ccc(=O)[nH]c12 (centres unmarked) [8-(2-hydroxy-3-isopropylamino)propoxycarbostyril]
Antagonistic Activity Against Isoprenaline (% Inhibition), Blood Pressure ([1]; 100 γ/Kg from the femoral vein): 66.2% | Antagonistic Activity Against Isoprenaline (% Inhibition), Pulse ([1]; 100 γ/Kg from the femoral vein): 57.4% | LD50 ([2]; iv, i.v., read-out: LD50 i.v.): 178 mg/kg | LD50 ([2]; po, p.o., read-out: LD50 p.o.): 2000 mg/kg

CCC(C)NCC(O)COc1cccc2ccc(=O)[nH]c12 (centres unmarked) [8-(2-hydroxy-3-sec-butylamino)propoxycarbostyril]
Antagonistic Activity Against Isoprenaline (% Inhibition), Blood Pressure ([1]; 100 γ/Kg from the femoral vein): 51.8% | Antagonistic Activity Against Isoprenaline (% Inhibition), Pulse ([1]; 100 γ/Kg from the femoral vein): 42.1% | LD50 ([2]; iv, i.v., read-out: LD50 i.v.): 143 mg/kg | LD50 ([2]; po, p.o., read-out: LD50 p.o.): 1900 mg/kg

CC(C)(C)NCC(O)COc1cccc2ccc(=O)[nH]c12 (centres unmarked) [8-(2-hydroxy-3-tert-butylamino)propoxycarbostyril]
Antagonistic Activity Against Isoprenaline (% Inhibition), Blood Pressure ([1]; 100 γ/Kg from the femoral vein): 78.3% | Antagonistic Activity Against Isoprenaline (% Inhibition), Pulse ([1]; 100 γ/Kg from the femoral vein): 72.6% | LD50 ([2]; iv, i.v., read-out: LD50 i.v.): 148 mg/kg | LD50 ([2]; po, p.o., read-out: LD50 p.o.): 1800 mg/kg
